These results are taken from paper PMC8123621, “Development of Novel Potential Pleiotropic Compounds of Interest in Alzheimer’s Disease Treatment through Rigidification Strategy” (Molecules, 2021).

In test [1] the target is T1, hAChE (AChE from human erythrocytes) (Homo sapiens, UniProt P22303).
T1 construct: AChE from human erythrocytes; purchased Sigma Aldrich; host or cells: human erythrocytes (tissue-derived enzyme)
The test is described as follows: biochemical. Particulars: for inhibition at 1 µM: read-out: hAChE % Inhibition at 10^−6 M; for IC50: mean ± SEM of three experiments, read-out: hAChE IC50 (nM) (n = 3). As to the method: (§1) The inhibitory activity of novel analogs towards hAChE was evaluated according to the Ellman test.
Inhibitory capacity of compounds on AChE biological activity was evaluated through the use of the spectrometric method of Ellman. Acetylthiocholine iodide and 5,5-dithiobis-(2-nitrobenzoic) acid (DTNB) were purchased from Sigma Aldrich. AChE from human erythrocytes (buffered aqueous solution, ≥500 units/mg protein (BCA), Sigma Aldrich) was diluted in 20 mM HEPES buffer pH 8, 0.1% Triton X-100 such as to have enzyme solution with 0.25 unit/mL enzyme activity. In the procedure, 100 μL of 0.3 mM DTNB dissolved in phosphate buffer pH 7.4 were added into the 96 wells plate followed by 50 μL of test compound solution and 50 μL of enzyme ([…]). After 5 min of preincubation at 25 °C, the reaction was then initiated by the injection of 50 μL of 1 mM acetylthiocholine iodide solution. […] Assays were performed with a blank containing all components except acetylthiocholine, in order to account for non-enzymatic reaction. The reaction slopes were compared and the percent inhibition due to the presence of test compounds was calculated by the following expression: 100 − (vi/v0 × 100) where vi is the rate calculated in the presence of inhibitor and v0 is the enzyme activity.

Test [2] deals with T2, human 5-HT4R (5-HT4(b) membrane preparations) (Homo sapiens, UniProt Q13639).
T2 construct: purchased Eurofins HTS110M
T2 sequence (Q13639 whole entry): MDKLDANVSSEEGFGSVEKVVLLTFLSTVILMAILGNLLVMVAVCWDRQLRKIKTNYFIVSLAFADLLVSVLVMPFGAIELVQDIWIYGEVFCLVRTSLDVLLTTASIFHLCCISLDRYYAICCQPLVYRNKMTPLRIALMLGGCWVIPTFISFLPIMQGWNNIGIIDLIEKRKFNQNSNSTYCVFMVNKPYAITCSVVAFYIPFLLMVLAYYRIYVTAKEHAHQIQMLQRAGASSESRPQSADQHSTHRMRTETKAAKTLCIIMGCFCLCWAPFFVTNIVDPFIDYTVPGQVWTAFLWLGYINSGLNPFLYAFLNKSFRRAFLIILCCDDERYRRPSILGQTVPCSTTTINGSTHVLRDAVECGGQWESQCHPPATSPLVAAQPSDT
The test is described as follows: h5-HT4R radioligand displacement ([3H]-GR113808). Format: binding. Particulars: for inhibition at 1 µM: 10^−6 M, 0.5 nM [3H]-GR113808. As for the experimental part: as §1
At the end of the incubation, homogenates were filtered through Whatman GF/C filters (Alpha Biotech) presoaked with 0.5% polyethylenimine using a Brandel cell harvester. Filters were subsequently washed three times with 1 mL of ice-cold 25 mM Tris buffer (pH 7.4, 4 °C). Non-specific binding was evaluated in parallel in the presence of 30 µM serotonin.
(§2) For some of these compounds, affinity constants were calculated from five-point inhibition curves using the GraphPad Prism 6 software and expressed as Ki ± SD.

Test [3] has as its target T3, human 5-HT6 receptors (Homo sapiens, UniProt P50406).
T3 construct: purchased Perkin Elmer RBHS6M; host or cells: HEK-293 cells, transient expression
The test is described as follows: h5-HT6R radioligand displacement ([3H]-LSD). The format is binding. Particulars: 10^−6 M; 2.5 nM [3H]-LSD. As for the experimental part:
as §1
Drugs were evaluated through their possibility to compete for the binding of [^3H]-LSD on membranes of HEK-293 cells transiently expressing the human 5-HT6 receptors (ref. RBHS6M, Perkin Elmer). […] At the end of the incubation, the homogenates were then filtered through Whatman GF/C filters and washed five times with ice-cold 25 mM Tris-HCl buffer. Non-specific binding was evaluated in the presence of 100 µM serotonin. Radioactivity associated to proteins was then quantified and expressed as the percentage of inhibition of the drugs under study.
as §2

Test [4] deals with scopolamine induced deficit. More on the design: method as in PMID 31316368. The settings on record: model of scopolamine induced deficit; cited from earlier work.

T3 sequence (P50406 whole entry): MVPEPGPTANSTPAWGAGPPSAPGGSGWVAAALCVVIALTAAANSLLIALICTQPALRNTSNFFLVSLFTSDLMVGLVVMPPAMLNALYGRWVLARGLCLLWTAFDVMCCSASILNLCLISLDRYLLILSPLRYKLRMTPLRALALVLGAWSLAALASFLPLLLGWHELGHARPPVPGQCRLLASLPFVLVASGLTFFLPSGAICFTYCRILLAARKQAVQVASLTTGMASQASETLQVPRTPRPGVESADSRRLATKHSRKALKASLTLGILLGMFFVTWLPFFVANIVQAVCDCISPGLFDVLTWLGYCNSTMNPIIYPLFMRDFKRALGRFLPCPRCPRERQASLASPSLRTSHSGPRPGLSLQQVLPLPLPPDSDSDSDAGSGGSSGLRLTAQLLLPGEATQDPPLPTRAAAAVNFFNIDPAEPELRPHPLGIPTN
T1 sequence (P22303 32-617 isoform P22303-2 limits assumed): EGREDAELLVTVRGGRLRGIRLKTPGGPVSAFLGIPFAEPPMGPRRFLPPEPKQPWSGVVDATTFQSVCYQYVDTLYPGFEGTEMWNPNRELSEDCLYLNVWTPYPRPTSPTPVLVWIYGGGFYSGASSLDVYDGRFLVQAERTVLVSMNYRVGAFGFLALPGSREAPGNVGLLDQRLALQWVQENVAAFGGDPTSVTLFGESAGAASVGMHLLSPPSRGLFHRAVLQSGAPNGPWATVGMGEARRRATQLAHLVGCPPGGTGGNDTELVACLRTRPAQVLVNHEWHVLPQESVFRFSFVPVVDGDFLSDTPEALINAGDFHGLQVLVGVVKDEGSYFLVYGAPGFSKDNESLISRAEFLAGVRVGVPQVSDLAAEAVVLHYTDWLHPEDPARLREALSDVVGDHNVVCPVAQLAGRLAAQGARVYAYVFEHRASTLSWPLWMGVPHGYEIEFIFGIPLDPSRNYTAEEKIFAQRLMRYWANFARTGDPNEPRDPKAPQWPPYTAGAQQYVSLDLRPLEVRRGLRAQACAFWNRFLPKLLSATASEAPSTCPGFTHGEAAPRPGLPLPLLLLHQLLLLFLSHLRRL

Take `COc1cc(N)c(Cl)cc1-c1nn(C)cc1CC1CCN(CC2CCCCC2)CC1` [3a, 2-chloro-4-(4-((1-(cyclohexylmethyl)piperidin-4-yl)methyl)-1-methyl-1H-pyrazol-3-yl)-5-methoxyaniline]: the inhibition at 1 µM worked out at 34% in test [1], 34% in test [2] and 2% in test [3].

For `COc1cc(N)c(Cl)cc1-c1nn(C)cc1CC1CCN(Cc2cccc(C)c2)CC1` [3b, 2-chloro-5-methoxy-4-(1-methyl-4-((1-(3-methylbenzyl)piperidin-4-yl)methyl)-1H-pyrazol-3-yl)aniline], the IC50 in test [1] is 110 ± 4 nM. In addition, the inhibition at 1 µM in test [1] came to 76%; in test [2], 20%; in test [3], 68%.

As for `COc1cc(NC(C)=O)c(Cl)cc1-c1cc(OCC2CCN(Cc3cccc(C)c3)CC2)n(C)n1` [12b, N-(2-chloro-5-methoxy-4-(1-methyl-5-((1-(3-methylbenzyl)piperidin-4-yl)methoxy)-1H-pyrazol-3-yl)phenyl)acetamide], the values for the inhibition at 1 µM in test [1], in test [2] and in test [3] were 15%, 9% and 0%, respectively.

For the molecule `Cc1cccc(CN2CCC(COc3cc(-c4ccccc4)nn3C)CC2)c1` [12c, 4-(((1-methyl-3-phenyl-1H-pyrazol-5-yl)oxy)methyl)-1-(3-methylbenzyl)piperidine], the inhibition at 1 µM in test [1] turned out to be 15%; in test [2], 10%; in test [3], 6%.

Turning to `COc1ccc(-c2cc(OCC3CCN(Cc4cccc(C)c4)CC3)n(C)n2)cc1OC` [12d, 4-(((3-(3,4-dimethoxyphenyl)-1_methyl-1H-pyrazol-5-yl)oxy)methyl)-1-(3-methylbenzyl)piperidine], the inhibition at 1 µM was determined as 6% in test [1], 9% in test [2] and 9% in test [3].

In the case of `COc1cc(N)c(Cl)cc1C(=O)CCC1CCN(CC2CCCCC2)CC1` [Donecopride, donecopride, reference compound], the results for the inhibition at 1 µM in test [1], in test [2] and in test [3] were 96%, 100% and 30%, respectively.

With `Fc1ccc2c(CCNCc3cccc(OCC(F)(F)C(F)F)c3)c[nH]c2c1` [Idalopirdine, idalopirdine, reference compound], the inhibition at 1 µM in test [3] came to 106%.

For the molecule `COc1cc(N)c(Cl)cc1C(=O)CCC1CCN(Cc2cccc(C)c2)CC1` [MR33372, reference compound], the inhibition at 1 µM in test [2] worked out at 98%; in test [3], 80%. Further, the “in vivo anti-amnesic effect” value in test [4] was “anti-amnesic effect”.

Turning to `CCCCN1CCC(CCC(=O)c2cc(Cl)c(N)cc2OC)CC1` [RS67333, reference compound], the inhibition at 1 µM in test [2] stood at 100%.

Take `COc1cc(NC(C)=O)c(Cl)cc1-c1nn(C)cc1CC1CCN(CC2CCCCC2)CC1` [compound 6, N-(2-chloro-4-(4-((1-(cyclohexylmethyl)piperidin-4-yl)methyl)-1-methyl-1H-pyrazol-3-yl)-5-methoxyphenyl)acetamide]: the inhibition at 1 µM stood at 31% in test [1], 16% in test [2] and 0% in test [3].

For the molecule `COc1cc(NC(C)=O)c(Cl)cc1C(=O)CCC1CCN(CC2CCCCC2)CC1` [compound 7, N-(2-chloro-4-(3-(1-(cyclohexylmethyl)piperidin-4-yl)propanoyl)-5-methoxyphenyl)acetamide], in test [1], the IC50 came to 34 ± 5 nM and the inhibition at 1 µM came to 98%. Also, in test [2], the Ki was found to be 300 nM and the inhibition at 1 µM is 94%.
